Measurements from patent US9611264B1, “N-[2-(3-amino-2,5-dimethyl-1,1-dioxido-5,6-dihydro-2H-1,2,4-thiadiazin-5-yl)-1,3-thiazol-4-yl] amides” (Pfizer Inc., priority 2015, dated 2017).
Counter-ions that a name gives are not always drawn.

Target: T1, BACE1 enzyme (Homo sapiens, UniProt P56817)
T1 construct: transfected with a soluble BACE construct (BACE1deltaTM96His); His (C); made in house; host or cells: CHO-K1 cells (secreted into conditioned media)
Assay: BACE1 Cell-Free Assay (fluorescence polarization, cleavage of synthetic APP substrate)
Type: biochemical
Conditions: geometric mean of 2-4 determinations unless otherwise indicated (b: ≧5 determinations; c: single determination); 0.1 nM BACE1, 150 nM peptide substrate, pH 4.5, 3 hours at 37° C.
Excerpt: Beta-secretase (BACE) is one of the enzymes involved in the generation of the amyloid beta peptide found in the amyloid plaques of Alzheimer's disease patients. This assay measures the inhibition of the beta-secretase enzyme as it cleaves a non-native peptide.
A synthetic APP substrate that can be cleaved by beta-secretase having N-terminal biotin and made fluorescent by the covalent attachment of Oregon Green at the Cys residue is used to assay beta-secretase activity in the presence or absence of the inhibitory compounds. The substrate is Biotin-GLTNIKTEEISEISY^EVEFR-C[Oregon Green]KK-OH. The BACE1 enzyme is affinity purified material from conditioned media of CHO-K1 cells that have been transfected with a soluble BACE construct (BACE1deltaTM96His). Compounds are incubated in a ½ log dose response curve from a top concentration of 100 μM with BACE1 enzyme and the biotinylated fluorescent peptide in 384-well black plates (Thermo Scientific #4318). BACE1 is at a final concentration of 0.1 nM with a final concentration of peptide substrate of 150 nM in a reaction volume of 30 μL assay buffer [100 mM sodium acetate, pH 4.5 (brought to pH with acetic acid), and 0.001% Tween-20]. Plates are covered and incubated for 3 hours at 37° C. The reaction is stopped with the addition of 30 μL of 1.5 μM Streptavidin (Pierce, #21125). After a 10 minute incubation at room temperature, plates are read on a PerkinElmer EnVision for fluorescence polarization (Ex485 nm/Em530 nm). The activity of the beta-secretase enzyme is detected by changes in the fluorescence polarization that occur when the substrate is cleaved by the enzyme.

T1 sequence (P56817 46-457 limits assumed): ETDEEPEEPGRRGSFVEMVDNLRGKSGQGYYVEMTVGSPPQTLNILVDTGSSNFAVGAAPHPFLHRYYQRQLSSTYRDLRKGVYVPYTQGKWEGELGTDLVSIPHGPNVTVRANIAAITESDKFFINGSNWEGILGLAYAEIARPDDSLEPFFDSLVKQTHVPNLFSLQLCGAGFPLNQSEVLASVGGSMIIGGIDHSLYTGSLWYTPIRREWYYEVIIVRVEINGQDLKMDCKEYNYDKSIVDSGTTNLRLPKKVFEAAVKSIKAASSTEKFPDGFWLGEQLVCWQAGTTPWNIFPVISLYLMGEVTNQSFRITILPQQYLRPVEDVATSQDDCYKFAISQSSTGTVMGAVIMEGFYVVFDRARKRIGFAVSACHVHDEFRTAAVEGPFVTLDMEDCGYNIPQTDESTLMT

SMILES	IC50
CN1C(N)=N[C@@](C)(c2nc(NC(=O)c3ccc(OC(F)F)cn3)cs2)[C@H](C2CC2)S1(=O)=O (single isomer, unassigned) [Example 3]	31200 nM
CN1C(N)=N[C@](C)(c2nc(NC(=O)c3ccc(OC(F)F)cn3)cs2)[C@@H](C2CC2)S1(=O)=O (single isomer, unassigned) [Example 4]	103 nM
CN1C(N)=N[C@](C)(c2nc(NC(=O)c3ccc(OC(F)F)cn3)cs2)[C@H](C2CC2)S1(=O)=O (single isomer, unassigned) [Example 5]	51 nM
CN1C(N)=N[C@@](C)(c2nc(NC(=O)c3ccc(OC(F)F)cn3)cs2)C(C)(C)S1(=O)=O (single isomer, unassigned) [Example 7]	4400 nM
CN1C(N)=N[C@](C)(c2nc(NC(=O)c3ccc(OC(F)F)cn3)cs2)C(C)(C)S1(=O)=O (single isomer, unassigned) [Example 8]	78 nM
C[C@H]1[C@](C)(c2nc(NC(=O)c3ccc(OC(F)F)cn3)cs2)N=C(N)N(C)S1(=O)=O (single isomer, unassigned) [Example 10]	18000 nM
C[C@@H]1[C@@](C)(c2nc(NC(=O)c3ccc(OC(F)F)cn3)cs2)N=C(N)N(C)S1(=O)=O (single isomer, unassigned) [Example 11]	136 nM
C[C@H]1[C@@](C)(c2nc(NC(=O)c3ccc(OC(F)F)cn3)cs2)N=C(N)N(C)S1(=O)=O (single isomer, unassigned) [Example 12]	88 nM
C[C@@H]1[C@](C)(c2nc(NC(=O)c3ccc(OC(F)F)cn3)cs2)N=C(N)N(C)S1(=O)=O (single isomer, unassigned) [Example 13]	33800 nM
CN1C(N)=N[C@](C)(c2nc(NC(=O)c3ccc(OC(F)F)cn3)cs2)CS1(=O)=O [Example 1, N-{2-[(5S)-3-amino-2,5-dimethyl-1,1-dioxido-5,6-dihydro-2H-1,2,4-thiadiazin-5-yl]-1,3-thiazol-4-yl}-5-(difluoromethoxy)pyridine-2-carboxamide]	60 nM
CN1C(N)=N[C@](C)(c2nc(NC(=O)c3ccn(C(F)F)n3)cs2)CS1(=O)=O [Example 2, N-{2-[(5S)-3-amino-2,5-dimethyl-1,1-dioxido-5,6-dihydro-2H-1,2,4-thiadiazin-5-yl]-1,3-thiazol-4-yl}-1-(difluoromethyl)-1H-pyrazole-3-carboxamide]	19 nM
CN1C(N)=NC(C)(c2nc(NC(=O)c3ccc(OC(F)F)cn3)cs2)C(C)(C)S1(=O)=O (stereo not drawn) [Example 6, N-[2-(3-amino-2,5,6,6-tetramethyl-1,1-dioxido-5,6-dihydro-2H-1,2,4-thiadiazin-5-yl)-1,3-thiazol-4-yl]-5-(difluoromethoxy)pyridine-2-carboxamide]	185 nM
Cc1cc(OC(F)F)cnc1C(=O)Nc1csc([C@]2(C)CS(=O)(=O)N(C)C(N)=N2)n1 [Example 9, N-{2-[(5S)-3-amino-2,5-dimethyl-1,1-dioxido-5,6-dihydro-2H-1,2,4-thiadiazin-5-yl]-1,3-thiazol-4-yl}-5-(difluoromethoxy)-3-methylpyridine-2-carboxamide, methanesulfonic acid salt]	29 nM
CC[C@H]1[C@](C)(c2nc(NC(=O)c3ccc(OC(F)F)cn3)cs2)N=C(N)N(C)S1(=O)=O [Example 14, N-{2-[(5R,6S)-3-amino-6-ethyl-2,5-dimethyl-1,1-dioxido-5,6-dihydro-2H-1,2,4-thiadiazin-5-yl]-1,3-thiazol-4-yl}-5-(difluoromethoxy)pyridine-2-carboxamide]	14200 nM

Now from value to compound:

IC50	SMILES
371 nM	CC[C@@H]1[C@@](C)(c2nc(NC(=O)c3ccc(OC(F)F)cn3)cs2)N=C(N)N(C)S1(=O)=O [Example 15, N-{2-[(5S,6R)-3-amino-6-ethyl-2,5-dimethyl-1,1-dioxido-5,6-dihydro-2H-1,2,4-thiadiazin-5-yl]-1,3-thiazol-4-yl}-5-(difluoromethoxy)pyridine-2-carboxamide]
3920 nM	CC[C@@H]1[C@](C)(c2nc(NC(=O)c3ccc(OC(F)F)cn3)cs2)N=C(N)N(C)S1(=O)=O [Example 16, N-{2-[(5R,6R)-3-amino-6-ethyl-2,5-dimethyl-1,1-dioxido-5,6-dihydro-2H-1,2,4-thiadiazin-5-yl]-1,3-thiazol-4-yl}-5-(difluoromethoxy)pyridine-2-carboxamide]
200 nM	CC[C@H]1[C@@](C)(c2nc(NC(=O)c3ccc(OC(F)F)cn3)cs2)N=C(N)N(C)S1(=O)=O [Example 17, N-{2-[(5S,6S)-3-amino-6-ethyl-2,5-dimethyl-1,1-dioxido-5,6-dihydro-2H-1,2,4-thiadiazin-5-yl]-1,3-thiazol-4-yl}-5-(difluoromethoxy)pyridine-2-carboxamide]
246 nM	CN1C(N)=N[C@](C)(c2nc(NC(=O)c3cnc(CF)cn3)cs2)CS1(=O)=O [Example 18, N-{2-[(5S)-3-amino-2,5-dimethyl-1,1-dioxido-5,6-dihydro-2H-1,2,4-thiadiazin-5-yl]-1,3-thiazol-4-yl}-5-(fluoromethyl)pyrazine-2-carboxamide]
172 nM	CN1C(N)=N[C@](C)(c2nc(NC(=O)c3cnc(C(F)F)cn3)cs2)CS1(=O)=O [Example 19, N-{2-[(5S)-3-amino-2,5-dimethyl-1,1-dioxido-5,6-dihydro-2H-1,2,4-thiadiazin-5-yl]-1,3-thiazol-4-yl}-5-(difluoromethyl)pyrazine-2-carboxamide]
42 nM	CN1C(N)=N[C@](C)(c2nc(NC(=O)c3ccc(Cl)cn3)cs2)CS1(=O)=O [Example 20, N-{2-[(5S)-3-amino-2,5-dimethyl-1,1-dioxido-5,6-dihydro-2H-1,2,4-thiadiazin-5-yl]-1,3-thiazol-4-yl}-5-chloropyridine-2-carboxamide]
11 nM	CN1C(N)=N[C@](C)(c2nc(NC(=O)c3coc(CF)n3)cs2)CS1(=O)=O [Example 21, N-{2-[(5S)-3-amino-2,5-dimethyl-1,1-dioxido-5,6-dihydro-2H-1,2,4-thiadiazin-5-yl]-1,3-thiazol-4-yl}-2-(fluoromethyl)-1,3-oxazole-4-carboxamide]
134 nM	CN1C(N)=N[C@](C)(c2nc(NC(=O)c3cnc(OCC(C)(F)F)cn3)cs2)CS1(=O)=O [Example 22, N-{2-[(5S)-3-amino-2,5-dimethyl-1,1-dioxido-5,6-dihydro-2H-1,2,4-thiadiazin-5-yl]-1,3-thiazol-4-yl}-5-(2,2-difluoropropoxy)pyrazine-2-carboxamide]
13 nM	CC#CCOc1cnc(C(=O)Nc2csc([C@]3(C)CS(=O)(=O)N(C)C(N)=N3)n2)cn1 [Example 23, N-{2-[(5S)-3-amino-2,5-dimethyl-1,1-dioxido-5,6-dihydro-2H-1,2,4-thiadiazin-5-yl]-1,3-thiazol-4-yl}-5-(but-2-yn-1-yloxy)pyrazine-2-carboxamide]
13 nM	CC#CCOc1ccc(C(=O)Nc2csc([C@]3(C)CS(=O)(=O)N(C)C(N)=N3)n2)nc1 [Example 24, N-{2-[(5S)-3-amino-2,5-dimethyl-1,1-dioxido-5,6-dihydro-2H-1,2,4-thiadiazin-5-yl]-1,3-thiazol-4-yl}-5-(but-2-yn-1-yloxy)pyridine-2-carboxamide]
23 nM	CN1C(N)=N[C@](C)(c2nc(NC(=O)c3ncc(OC(F)F)cc3Cl)cs2)CS1(=O)=O [Example 25, N-{2-[(5S)-3-amino-2,5-dimethyl-1,1-dioxido-5,6-dihydro-2H-1,2,4-thiadiazin-5-yl]-1,3-thiazol-4-yl}-3-chloro-5-(difluoromethoxy)pyridine-2-carboxamide]
45 nM	CN1C(N)=N[C@](C)(c2nc(NC(=O)c3ccc(C#N)cn3)cs2)CS1(=O)=O [Example 26, N-{2-[(5S)-3-amino-2,5-dimethyl-1,1-dioxido-5,6-dihydro-2H-1,2,4-thiadiazin-5-yl]-1,3-thiazol-4-yl}-5-cyanopyridine-2-carboxamide]
9 nM	Cc1cc(C#N)cnc1C(=O)Nc1csc([C@]2(C)CS(=O)(=O)N(C)C(N)=N2)n1 [Example 27, N-{2-[(5S)-3-amino-2,5-dimethyl-1,1-dioxido-5,6-dihydro-2H-1,2,4-thiadiazin-5-yl]-1,3-thiazol-4-yl}-5-cyano-3-methylpyridine-2-carboxamide]
